# Assay results from PubChem BioAssay AID1963853 (Molecular Pharmacology Branch, DTP, NCI, 2024).
# System: 266295-075-R-J1-PDC spheroid viability
# Experiment: Anticancer human tumor 266295-075-R-J1-PDC patient-derived head and neck squamous carcinoma cell line growth inhibition [POLQ]
# Conditions: spheroids with HUVEC and MSC; for IC50: curve of first compound; for viability, T/C: stronger effect = lower value
# In short: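 PDC + HUVEC + MSC complex spheroids; POLQ inhibitors ± partner drugs; top conc. at/near clinical Cmax, else 10 microM (SN-38 1 microM), half-log dilutions; 37 degrees C, 5% CO2.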
# [1] = second compound 0.0316 µM, first compound 0.0316 µM
# [2] = second compound 0.0316 µM, first compound 0.1 µM
# [3] = second compound 0.0316 µM, first compound 0.316 µM
# [4] = second compound 0.0316 µM, first compound 1 µM
# [5] = second compound 0.0316 µM, first compound 3.16 µM
# [6] = second compound 0.0316 µM, first compound 10 µM
# [7] = second compound 0.1 µM, first compound 0.0316 µM
# [8] = second compound 0.1 µM, first compound 0.1 µM
# [9] = second compound 0.1 µM, first compound 0.316 µM
# [10] = second compound 0.1 µM, first compound 1 µM
# [11] = second compound 0.1 µM, first compound 3.16 µM
# [12] = second compound 0.1 µM, first compound 10 µM
# [13] = second compound 0.316 µM, first compound 0.0316 µM
# [14] = second compound 0.316 µM, first compound 0.1 µM
# [15] = second compound 0.316 µM, first compound 0.316 µM
# [16] = second compound 0.316 µM, first compound 1 µM
# [17] = second compound 0.316 µM, first compound 3.16 µM
# [18] = second compound 0.316 µM, first compound 10 µM
# [19] = second compound 1 µM, first compound 0.0316 µM
# [20] = second compound 1 µM, first compound 0.1 µM
# [21] = second compound 1 µM, first compound 0.316 µM
# [22] = second compound 1 µM, first compound 1 µM
# [23] = second compound 1 µM, first compound 3.16 µM
# [24] = second compound 1 µM, first compound 10 µM
# [25] = second compound 3.16 µM, first compound 0.0316 µM
# [26] = second compound 3.16 µM, first compound 0.1 µM
# [27] = second compound 3.16 µM, first compound 0.316 µM
# [28] = second compound 3.16 µM, first compound 1 µM
# [29] = second compound 3.16 µM, first compound 3.16 µM
# [30] = second compound 3.16 µM, first compound 10 µM
# [31] = second compound 10 µM, first compound 0.0316 µM
# [32] = second compound 10 µM, first compound 0.1 µM
# [33] = second compound 10 µM, first compound 0.316 µM
# [34] = second compound 10 µM, first compound 1 µM
# [35] = second compound 10 µM, first compound 3.16 µM
# [36] = second compound 10 µM, first compound 10 µM
# 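Also: spheroids exposed to compounds for seven days before readout.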
compound,measurement,setting,value
C=CC(=O)N1CCN(c2nc(=O)n(-c3c(C)ccnc3C(C)C)c3nc(-c4c(O)cccc4F)c(F)cc23)C(C)C1 (stereo not drawn) + COC1C(OC(N)=O)C(O)C(Oc2ccc3c(O)c(NC(=O)c4ccc(O)c(CC=C(C)C)c4)c(=O)oc3c2C)OC1(C)C,IC50,second compound 0.0316 µM,> 10 µM
same,IC50,second compound 0.1 µM,> 10 µM
same,IC50,second compound 0.316 µM,> 10 µM
same,IC50,second compound 1 µM,> 10 µM
same,IC50,second compound 3.16 µM,> 10 µM
same,IC50,second compound 10 µM,> 10 µM
same,"viability, T/C",[1],88.8%
same,"viability, T/C",[2],94.7%
same,"viability, T/C",[3],133%
same,"viability, T/C",[4],118%
same,"viability, T/C",[5],112%
same,"viability, T/C",[6],112%
same,"viability, T/C",[7],98.7%
same,"viability, T/C",[8],90.6%
same,"viability, T/C",[9],94%
same,"viability, T/C",[10],104%
same,"viability, T/C",[11],96%
same,"viability, T/C",[12],129%
same,"viability, T/C",[13],96.9%
same,"viability, T/C",[14],103%
same,"viability, T/C",[15],104%
same,"viability, T/C",[16],106%
same,"viability, T/C",[17],125%
same,"viability, T/C",[18],105%
same,"viability, T/C",[19],85.9%
same,"viability, T/C",[20],114%
same,"viability, T/C",[21],93.4%
same,"viability, T/C",[22],106%
same,"viability, T/C",[23],139%
same,"viability, T/C",[24],124%
same,"viability, T/C",[25],92.2%
same,"viability, T/C",[26],98.4%
same,"viability, T/C",[27],108%
same,"viability, T/C",[28],112%
same,"viability, T/C",[29],116%
same,"viability, T/C",[30],117%
same,"viability, T/C",[31],97%
same,"viability, T/C",[32],79.3%
same,"viability, T/C",[33],92.5%
same,"viability, T/C",[34],122%
same,"viability, T/C",[35],109%
same,"viability, T/C",[36],114%
CC(C)n1c(=O)n(C)c2cnc3cc(F)c(-c4ccc(OCCCN5CCCCC5)nc4)cc3c21 + COC1C(OC(N)=O)C(O)C(Oc2ccc3c(O)c(NC(=O)c4ccc(O)c(CC=C(C)C)c4)c(=O)oc3c2C)OC1(C)C,IC50,second compound 0.0316 µM,> 10 µM
same,IC50,second compound 0.1 µM,> 10 µM
same,IC50,second compound 0.316 µM,> 10 µM
same,IC50,second compound 1 µM,> 10 µM
same,IC50,second compound 3.16 µM,> 10 µM
same,IC50,second compound 10 µM,> 10 µM
same,"viability, T/C",[1],102%
same,"viability, T/C",[2],86.7%
same,"viability, T/C",[3],97.2%
same,"viability, T/C",[4],93.8%
same,"viability, T/C",[5],83%
same,"viability, T/C",[6],72.2%
same,"viability, T/C",[7],105%
same,"viability, T/C",[8],95.5%
same,"viability, T/C",[9],90.3%
same,"viability, T/C",[10],96.5%
same,"viability, T/C",[11],82.8%
same,"viability, T/C",[12],74.5%
same,"viability, T/C",[13],103%
same,"viability, T/C",[14],114%
same,"viability, T/C",[15],90.7%
same,"viability, T/C",[16],100%
same,"viability, T/C",[17],93.9%
same,"viability, T/C",[18],57.2%
same,"viability, T/C",[19],121%
same,"viability, T/C",[20],99.5%
same,"viability, T/C",[21],91.8%
same,"viability, T/C",[22],86.3%
same,"viability, T/C",[23],74.8%
same,"viability, T/C",[24],77.7%
same,"viability, T/C",[25],92.8%
same,"viability, T/C",[26],85.2%
same,"viability, T/C",[27],101%
same,"viability, T/C",[28],78.9%
same,"viability, T/C",[29],74.9%
same,"viability, T/C",[30],66.2%
same,"viability, T/C",[31],124%
same,"viability, T/C",[32],88.4%
same,"viability, T/C",[33],78.3%
same,"viability, T/C",[34],78.5%
same,"viability, T/C",[35],83.3%
same,"viability, T/C",[36],66.3%
CCc1cc2c(N3CCc4c(cc(Cn5ccnc5)cc4-c4cn(C)nc4C(F)(F)F)C3=O)ccnc2c(OC)n1 + COC1C(OC(N)=O)C(O)C(Oc2ccc3c(O)c(NC(=O)c4ccc(O)c(CC=C(C)C)c4)c(=O)oc3c2C)OC1(C)C,IC50,second compound 0.0316 µM,> 10 µM
same,IC50,second compound 0.1 µM,> 10 µM
same,IC50,second compound 0.316 µM,> 10 µM
same,IC50,second compound 1 µM,> 10 µM
same,IC50,second compound 3.16 µM,> 10 µM
same,IC50,second compound 10 µM,> 10 µM
same,"viability, T/C",[1],88.9%
same,"viability, T/C",[2],93%
same,"viability, T/C",[3],119%
same,"viability, T/C",[4],104%
same,"viability, T/C",[5],144%
same,"viability, T/C",[6],132%
same,"viability, T/C",[7],117%
same,"viability, T/C",[8],96.8%
same,"viability, T/C",[9],127%
same,"viability, T/C",[10],107%
same,"viability, T/C",[11],114%
same,"viability, T/C",[12],132%
same,"viability, T/C",[13],94.8%
same,"viability, T/C",[14],96.7%
same,"viability, T/C",[15],95%
same,"viability, T/C",[16],129%
same,"viability, T/C",[17],120%
same,"viability, T/C",[18],115%
same,"viability, T/C",[19],95.3%
same,"viability, T/C",[20],80.9%
same,"viability, T/C",[21],94%
same,"viability, T/C",[22],102%
same,"viability, T/C",[23],129%
same,"viability, T/C",[24],127%
same,"viability, T/C",[25],100%
same,"viability, T/C",[26],101%
same,"viability, T/C",[27],104%
same,"viability, T/C",[28],117%
same,"viability, T/C",[29],159%
same,"viability, T/C",[30],146%
same,"viability, T/C",[31],90.2%
same,"viability, T/C",[32],87.7%
same,"viability, T/C",[33],111%
same,"viability, T/C",[34],117%
same,"viability, T/C",[35],145%
same,"viability, T/C",[36],135%
COc1ccc([C@@H](O)c2cc(-c3ncnc4cc(N5CCOCC5)ccc34)c(F)cc2Cl)nn1 + COC1C(OC(N)=O)C(O)C(Oc2ccc3c(O)c(NC(=O)c4ccc(O)c(CC=C(C)C)c4)c(=O)oc3c2C)OC1(C)C,IC50,second compound 0.0316 µM,3.45 µM
same,IC50,second compound 0.1 µM,4.06 µM
same,IC50,second compound 0.316 µM,4.31 µM
same,IC50,second compound 1 µM,3.67 µM
same,IC50,second compound 3.16 µM,2.48 µM
same,IC50,second compound 10 µM,2.74 µM
same,"viability, T/C",[1],97.3%
same,"viability, T/C",[2],84.5%
same,"viability, T/C",[3],76.6%
same,"viability, T/C",[4],62.7%
same,"viability, T/C",[5],49.9%
same,"viability, T/C",[6],40.7%
same,"viability, T/C",[7],107%
same,"viability, T/C",[8],105%
same,"viability, T/C",[9],73.1%
same,"viability, T/C",[10],74.5%
same,"viability, T/C",[11],47.5%
same,"viability, T/C",[12],43.7%
same,"viability, T/C",[13],104%
same,"viability, T/C",[14],85.9%
same,"viability, T/C",[15],75.2%
same,"viability, T/C",[16],64.7%
same,"viability, T/C",[17],51.8%
same,"viability, T/C",[18],43.4%
same,"viability, T/C",[19],91.1%
same,"viability, T/C",[20],96%
same,"viability, T/C",[21],68.2%
same,"viability, T/C",[22],73.6%
same,"viability, T/C",[23],48.2%
same,"viability, T/C",[24],39.8%
same,"viability, T/C",[25],95.9%
same,"viability, T/C",[26],84.6%
same,"viability, T/C",[27],83.2%
same,"viability, T/C",[28],62.2%
same,"viability, T/C",[29],46%
same,"viability, T/C",[30],40.2%
same,"viability, T/C",[31],112%
same,"viability, T/C",[32],75%
same,"viability, T/C",[33],75.2%
same,"viability, T/C",[34],63%
same,"viability, T/C",[35],50.9%
same,"viability, T/C",[36],37.3%
